Measured values as given in patent US12594276B2, “Inhibitors of human immunodeficiency virus replication” (ViiV Healthcare UK (No.5) Limited, priority 2024, dated 2026).
Where two headings read alike, the source gives them in different places.

Assays:
[1] = Compound cytotoxicity, XTT-based colorimetric assay; assay type: cell-based; settings: human
Procedure, shortened: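 Uninfected MT2 cells, antiviral-assay protocol without virus; XTT colorimetric readout day 4; CC50 reported.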

[2] = tested on: recombinant NL4-3 virus (nef section replaced with Renilla luciferase gene) in MT-2 cells; assay: HIV cell culture assay (antiviral activity, luciferase readout); assay type: cell-based; settings: Renilla, NL43, MT-2 cells infected for 4-5 days with recombinant NL4-3 Renilla luciferase virus
Procedure, shortened: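 EC50 was derived by median-effect fitting of Renilla luciferase signal from MT-2 cells. These cells were infected for 4–5 days with NL4-3 reporter virus (nef partly replaced by luciferase; made in 293T cells) in the presence of serially diluted compound. Activity was quantified with a live-cell luciferase substrate.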

[3] = uninfected MT2 cells, day 4, XTT, read-out: CC50

SMILES | CC50 at 4 days [1, 3] [nM] | EC50 [2] [nM] | CC50 at 4 days [1] [nM]
C[C@@H]1CN(CCn2nc(NS(C)(=O)=O)c3c(Cl)ccc(-n4c([C@H](Cc5cc(F)cc(F)c5)NC(=O)Cn5nc(C6CC6)c6c5C[C@@H]5C[C@H]65)nc5nc(C6CCC(F)(F)CC6)cc(C(F)F)c5c4=O)c32)C[C@H](C)O1 (atropisomer, axis not shown; (P)) [Example 240, N-[(1S)-1-[(3P)-3-(4-chloro-1-{2-[(2R,6S)-2,6-dimethylmorpholin-4-yl]ethyl}-3-methanesulfonamido-1H-indazol-7-yl)-7-(4,4-difluorocyclohexyl)-5-(difluoromethyl)-4-oxo-3H,4H-pyrido[2,3-d]pyrimidin-2-yl]-2-(3,5-difluorophenyl)ethyl]-2-[(2S,4S)-9-cyclopropyl-7,8-diazatricyclo[4.3.0.0^2,^4]nona-1(6),8-dien-7-yl]acetamide] | > 50 | 0.026 | 
COCCOCCn1nc(NS(C)(=O)=O)c2c(Cl)ccc(-n3c([C@H](Cc4cc(F)cc(F)c4)NC(=O)Cn4nc(C(F)F)c5c4C(F)(F)[C@@H]4C[C@H]54)nc4nc(C5CCC(F)(F)CC5)ccc4c3=O)c21 (atropisomer, axis not shown; (P)) [Example 241, N-[(1S)-1-[(3P)-3-{4-chloro-3-methanesulfonamido-1-[2-(2-methoxyethoxy)ethyl]-1H-indazol-7-yl}-7-(4,4-difluorocyclohexyl)-4-oxo-3H,4H-pyrido[2,3-d]pyrimidin-2-yl]-2-(3,5-difluorophenyl)ethyl]-2-[(2S,4R)-9-(difluoromethyl)-5,5-difluoro-7,8-diazatricyclo[4.3.0.0^2,^4]nona-1(6),8-dien-7-yl]acetamide] | > 50 | 0.018 | 
Cc1cc(C2CCC(F)(F)CC2)nc2nc([C@H](Cc3cc(F)cc(F)c3)NC(=O)Cn3nc(C4CC4)c4c3C[C@@H]3C[C@H]43)n(-c3ccc(Cl)c4c(NS(C)(=O)=O)nn(CCN5[C@@H]6CC[C@H]5CC(F)(F)C6)c34)c(=O)c12 (atropisomer, axis not shown; (P)) [Example 245] |  | 0.019 | > 50
Cc1cc(C2CCC(F)(F)CC2)nc2nc([C@H](Cc3cc(F)cc(F)c3)NC(=O)Cn3nc(C(F)F)c4c3C(F)(F)[C@@H]3C[C@H]43)n(-c3ccc(Cl)c4c(NS(C)(=O)=O)nn(CCN5[C@@H]6CC[C@H]5CC(F)(F)C6)c34)c(=O)c12 (atropisomer, axis not shown; (P)) [Example 246, N-[(1S)-1-[(3P)-3-(4-chloro-1-{2-[(1R,5S)-3,3-difluoro-8-azabicyclo[3.2.1]octan-8-yl]ethyl}-3-methanesulfonamido-1H-indazol-7-yl)-7-(4,4-difluorocyclohexyl)-5-methyl-4-oxo-3H,4H-pyrido[2,3-d]pyrimidin-2-yl]-2-(3,5-difluorophenyl)ethyl]-2-[(2S,4R)-9-(difluoromethyl)-5,5-difluoro-7,8-diazatricyclo[4.3.0.0^2,^4]nona-1(6),8-dien-7-yl]acetamide] |  | 0.028 | > 50
Cc1cc(C2CCC(F)(F)CC2)nc2nc([C@H](Cc3cc(F)cc(F)c3)NC(=O)Cn3nc(C(F)F)c4c3C(F)(F)[C@@H]3C[C@H]43)n(-c3ccc(Cl)c4c(NS(C)(=O)=O)nn(CCN5CC(F)(F)C(F)(F)C5)c34)c(=O)c12 (atropisomer, axis not shown; (P)) [Example 247, N-[(1S)-1-[(3P)-3-{4-chloro-3-methanesulfonamido-1-[2-(3,3,4,4-tetrafluoropyrrolidin-1-yl)ethyl]-1H-indazol-7-yl}-7-(4,4-difluorocyclohexyl)-5-methyl-4-oxo-3H,4H-pyrido[2,3-d]pyrimidin-2-yl]-2-(3,5-difluorophenyl)ethyl]-2-[(2S,4R)-9-(difluoromethyl)-5,5-difluoro-7,8-diazatricyclo[4.3.0.0^2,^4]nona-1(6),8-dien-7-yl]acetamide] | > 50 | 0.047 | 
Cc1cc(C2CCC(F)(F)CC2)nc2nc([C@H](Cc3cc(F)cc(F)c3)NC(=O)Cn3nc(C4CC4)c4c3C[C@@H]3C[C@H]43)n(-c3ccc(Cl)c4c(NS(C)(=O)=O)nn(CCN5CC(F)(F)C(F)(F)C5)c34)c(=O)c12 (atropisomer, axis not shown; (P)) [Example 248, N-[(1S)-1-[(3P)-3-{4-chloro-3-methanesulfonamido-1-[2-(3,3,4,4-tetrafluoropyrrolidin-1-yl)ethyl]-1H-indazol-7-yl}-7-(4,4-difluorocyclohexyl)-5-methyl-4-oxo-3H,4H-pyrido[2,3-d]pyrimidin-2-yl]-2-(3,5-difluorophenyl)ethyl]-2-[(2S,4S)-9-cyclopropyl-7,8-diazatricyclo[4.3.0.0^2,^4]nona-1(6),8-dien-7-yl]acetamide] | > 50 | 0.018 | 
CO[C@H]1CCN(CCn2nc(NS(C)(=O)=O)c3c(Cl)ccc(-n4c([C@H](Cc5cc(F)cc(F)c5)NC(=O)Cn5nc(C(F)F)c6c5C(F)(F)[C@@H]5C[C@H]65)nc5nc(C6CCC(F)(F)CC6)cc(C(F)F)c5c4=O)c32)C1 (atropisomer, axis not shown; (P)) [Example 257, N-[(1S)-1-[(3P)-3-(4-chloro-3-methanesulfonamido-1-{2-[(3S)-3-methoxypyrrolidin-1-yl]ethyl}-1H-indazol-7-yl)-7-(4,4-difluorocyclohexyl)-5-(difluoromethyl)-4-oxo-3H,4H-pyrido[2,3-d]pyrimidin-2-yl]-2-(3,5-difluorophenyl)ethyl]-2-[(2S,4R)-9-(difluoromethyl)-5,5-difluoro-7,8-diazatricyclo[4.3.0.0^2,^4]nona-1(6),8-dien-7-yl]acetamide] | > 50 | 0.027 | 
CS(=O)(=O)Nc1nn(CCN2C[C@@H](F)[C@@H](F)C2)c2c(-n3c([C@H](Cc4cc(F)cc(F)c4)NC(=O)Cn4nc(C(F)F)c5c4C(F)(F)[C@@H]4C[C@H]54)nc4nc(C5CCC(F)(F)CC5)cc(C(F)F)c4c3=O)ccc(Cl)c12 (atropisomer, axis not shown; (P)) [Example 259, N-[(1S)-1-[(3P)-3-(4-chloro-1-{2-[(3R,4S)-3,4-difluoropyrrolidin-1-yl]ethyl}-3-methanesulfonamido-1H-indazol-7-yl)-7-(4,4-difluorocyclohexyl)-5-(difluoromethyl)-4-oxo-3H,4H-pyrido[2,3-d]pyrimidin-2-yl]-2-(3,5-difluorophenyl)ethyl]-2-[(2S,4R)-9-(difluoromethyl)-5,5-difluoro-7,8-diazatricyclo[4.3.0.0^2,^4]nona-1(6),8-dien-7-yl]acetamide] | > 50 | 0.025 | 
Cc1cc(C2CCC(F)(F)CC2)nc2nc([C@H](Cc3cc(F)cc(F)c3)NC(=O)Cn3nc(C(F)F)c4c3C(F)(F)[C@@H]3C[C@H]43)n(-c3ccc(Cl)c4c(NS(C)(=O)=O)nn(CCN5CCCC5)c34)c(=O)c12 (atropisomer, axis not shown; (P)) [Example 266, N-[(1S)-1-[(3P)-3-{4-chloro-3-methanesulfonamido-1-[2-(pyrrolidin-1-yl)ethyl]-1H-indazol-7-yl}-7-(4,4-difluorocyclohexyl)-5-methyl-4-oxo-3H,4H-pyrido[2,3-d]pyrimidin-2-yl]-2-(3,5-difluorophenyl)ethyl]-2-[(2S,4R)-9-(difluoromethyl)-5,5-difluoro-7,8-diazatricyclo[4.3.0.0^2,^4]nona-1(6),8-dien-7-yl]acetamide] | > 50 | 0.034 | 
Cc1cc(C2CCC(F)(F)CC2)nc2nc([C@H](Cc3cc(F)cc(F)c3)NC(=O)Cn3nc(C(F)F)c4c3C(F)(F)[C@@H]3C[C@H]43)n(-c3ccc(Cl)c4c(NS(C)(=O)=O)nn(CCN5C[C@@H](F)[C@@H](F)C5)c34)c(=O)c12 (atropisomer, axis not shown; (P)) [Example 267, N-[(1S)-1-[(3P)-3-(4-chloro-1-{2-[(3R,4S)-3,4-difluoropyrrolidin-1-yl]ethyl}-3-methanesulfonamido-1H-indazol-7-yl)-7-(4,4-difluorocyclohexyl)-5-methyl-4-oxo-3H,4H-pyrido[2,3-d]pyrimidin-2-yl]-2-(3,5-difluorophenyl)ethyl]-2-[(2S,4R)-9-(difluoromethyl)-5,5-difluoro-7,8-diazatricyclo[4.3.0.0^2,^4]nona-1(6),8-dien-7-yl]acetamide] | > 50 | 0.015 | 
Cc1cc(C2CCC(F)(F)CC2)nc2nc([C@H](Cc3cc(F)cc(F)c3)NC(=O)Cn3nc(C(F)F)c4c3C(F)(F)[C@@H]3C[C@H]43)n(-c3ccc(Cl)c4c(NS(C)(=O)=O)nn(CCN5CC(C(F)F)C5)c34)c(=O)c12 (atropisomer, axis not shown; (P)) [Example 268, N-[(1S)-1-[(3P)-3-(4-chloro-1-{2-[3-(difluoromethyl)azetidin-1-yl]ethyl}-3-methanesulfonamido-1H-indazol-7-yl)-7-(4,4-difluorocyclohexyl)-5-methyl-4-oxo-3H,4H-pyrido[2,3-d]pyrimidin-2-yl]-2-(3,5-difluorophenyl)ethyl]-2-[(2S,4R)-9-(difluoromethyl)-5,5-difluoro-7,8-diazatricyclo[4.3.0.0^2,^4]nona-1(6),8-dien-7-yl]acetamide] | > 50 | 0.015 | 
Cc1cc(C2CCC(F)(F)CC2)nc2nc([C@H](Cc3cc(F)cc(F)c3)NC(=O)Cn3nc(C(F)F)c4c3C(F)(F)[C@@H]3C[C@H]43)n(-c3ccc(Cl)c4c(NS(C)(=O)=O)nn(CCN5CCCCC5)c34)c(=O)c12 (atropisomer, axis not shown; (P)) [Example 269, N-[(1S)-1-[(3P)-3-{4-chloro-3-methanesulfonamido-1-[2-(piperidin-1-yl)ethyl]-1H-indazol-7-yl}-7-(4,4-difluorocyclohexyl)-5-methyl-4-oxo-3H,4H-pyrido[2,3-d]pyrimidin-2-yl]-2-(3,5-difluorophenyl)ethyl]-2-[(2S,4R)-9-(difluoromethyl)-5,5-difluoro-7,8-diazatricyclo[4.3.0.0^2,^4]nona-1(6),8-dien-7-yl]acetamide] | > 50 | 0.018 | 
